The subject of data set [1] is TNF-α production by human monocyte strain THP-1 cells stimulated with LPS. In words: Inhibition of LPS-induced TNF-α production in THP-1 cells (ELISA). It counts as cell-based. The settings on record: compound 10^−5M, THP-1 cells 10^6 cells/ml, LPS 2 μg/ml, 37° C., two hours; for inhibition at 10 µM: Homo sapiens, 2 h, read-out: Rate of Inhibition (%) of TNF-α production. On the procedure: Each candidate compound was inspected for the effect of inhibiting TNF-α production induced by the stimulation with lipopolysaccharide (LPS), by an in vitro test according to the method proposed by McGeehan et al. (Nature, 1994, 370:558-561).
The test (assay) was carried out by determining the amount of TNF-α produced by the human monocyte strain THP-1 cells induced by the stimulation with LPS.
The culture medium used in this test was RPMI 1640 culture medium supplemented wiTNFetal calf serum (10%), L-glutamine (2 mM), 2-mercaptoethanol (50 μM), penicillin (50 units/ml) and streptomycin (50 μg/ml).
Regarding the cells, the human monocyte strain THP-1 cells cultivated in the foregoing culture medium were centrifuged at 100 xg for 5 minutes to remove the supernatant and then again suspended in a fresh culture medium prior to the practical use. The LPS used herein was derived from S. Typhimurium and this was dissolved in purified water and then diluted with the culture medium prior to use. Each compound to be tested (candidate compound) was dissolved in dimethyl sulfoxide (DMSO) and diluted with the culture medium prior to the practical use.
The cells (10^6 cells/ml) prepared according to the foregoing method were admixed with the LPS (2 μg/ml) and a compound to be tested (10^−5M), the cells were incubated at 37° C. for two hours and then centrifuged at 1000 xg for 5 minutes. The resulting supernatant of the culture medium was inspected for the level of TNF-α using the human TNF-α-specific ELISA kit. In this connection, it was confirmed that the supernatant obtained by cultivating the cells in the culture medium free of any LPS (control) never included any TNF-α.
The rate of the TNF-α production inhibitory effect observed for each candidate compound was determined according to the following equation:
Rate of Inhibition (%)=100×(A−B)/A
Wherein A is the level of TNF-α detected in the supernatant obtained from the culture medium free of any candidate compound and B is the level of TNF-α detected in the supernatant obtained from the culture medium containing a candidate compound.

Counter-ions that a name gives are not always drawn.

Turning to `CC(=O)SCCN(CCc1ccccc1)C(=O)N[C@@H](Cc1ccccc1)CN(C)C` [Compound 6-3, 1-[2-(Acetylthio)ethyl]-3-[(1S)-1-benzyl-2-(dimethylamino)ethyl]-1-phenethyl urea], the inhibition at 10 µM in data set [1] is 83%. In the case of `CC(C)CCN(CCN)C(=O)N[C@H](CSSC[C@H](Cc1ccc(-c2ccccc2)cc1)NC(=O)N(CCN)CCC(C)C)Cc1ccc(-c2ccccc2)cc1.Cl.Cl` [Compound 8-2, Bis[(2S)-2-[3-(2-aminoethyl)-3-isopentylureido]-3-(4-biphenylyl)propane]-disulfide di-hydrochloride], in data set [1], the “Rate of Inhibition (%) of TNF-α production” value was found to be 66%. With `CC(=O)SC[C@H](Cc1ccc(-c2ccccc2)cc1)NC(=O)N(CCC(C)C)CCN(C)C` [Compound 6-11, 1-[(1S)-2-(Acetylthio)-1-[(4-biphenylyl)methyl]ethyl]-3-[2-(dimethylamino)-ethyl]-3-isopentyl urea], the inhibition at 10 µM in data set [1] is 76%. In the case of `CC(=O)SC[C@H](Cc1ccccc1)NC(=O)N(CCC(C)C)CCN(C)C` [Compound 6-8, 1-[(1S)-2-(Acetylthio)-1-benzylethyl]-3-[2-(dimethylamino)ethyl]-3-isopentyl urea], the inhibition at 10 µM in data set [1] turned out to be 60%. With `CC(C)CCN(CCN)C(=O)N[C@H](CSSC[C@H](Cc1ccccc1)NC(=O)N(CCN)CCC(C)C)Cc1ccccc1` (as salt: hydrochloride) [Compound 8-1, Bis[(2S)-2-[3-(2-aminoethyl)-3-isopentylureido]-3-phenylpropane] Disulfide di-hydrochloride], the melting point is 100 °C (dec.). As to `CC(C)CCN(CCN)C(=O)N[C@H](CSSC[C@H](Cc1ccccc1)NC(=O)N(CCN)CCC(C)C)Cc1ccccc1` [Compound 8-1, Bis[(2S)-2-[3-(2-aminoethyl)-3-isopentylureido]-3-phenylpropane] Disulfide di-hydrochloride], the inhibition at 10 µM in data set [1] was found to be 81%.
